Here are results for 39 compounds from the NIST ThermoML archive (doi:10.1021/je0341357).

The conditions of this data set: Liquid; Visual observation in an unstirred cell.

± gives the expanded uncertainty stated by the source.

Consider `CC(C)(C)C1CCCCC1` [1,1-dimethylethylcyclohexane], for which the Critical temperature came to 652 ± 0.4 K.

`CCCC1CCCCC1` [1-cyclohexylpropane]: the Critical temperature is on record as 630.8 ± 0.9 K.

In the case of `CCCCCCNC` [1-hexanamine, N-methyl-], the Critical temperature is given as 592 ± 1 K.

For `CCCCCCN` [1-hexanamine], the Critical temperature is listed as 592.3 ± 0.7 K.

Take `CCCCCC(C)N` (centres undefined) [1-methylhexylamine]: the Critical temperature was determined as 598 ± 2.1 K.

As to `C=C(C)C(C)C` [2,3-dimethyl-1-butene], the Critical temperature was determined as 497.7 ± 0.9 K.

`C=C(C)C(C)CC` (centres undefined) [2,3-dimethyl-1-pentene]: the Critical temperature stood at 533.6 ± 4.3 K.

For `CC(C)=C(C)C` [2,3-dimethyl-2-butene], the Critical temperature is 521 ± 0.9 K.

As to `C/C=C/CCCC` [2-heptene, (E)-], the Critical temperature is 542.8 ± 0.4 K.

Regarding `C/C=C\CCCC` [2-heptene, (Z)-], the Critical temperature was found to be 548.5 ± 0.6 K.

With `C=C(C)CC` [2-methyl-1-butene], the Critical temperature was 467 ± 0.5 K.

Consider `C=C(C)CCCCC` [2-methyl-1-heptene], for which the Critical temperature was 567.5 ± 0.9 K.

`C=C(C)CCCC` [2-methyl-1-hexene]: the Critical temperature amounted to 541.8 ± 1.1 K.

For `C=C(C)CCC` [2-methyl-1-pentene], the Critical temperature was 521 ± 0.4 K.

Take `CCCCC=C(C)C` [2-methyl-2-heptene]: the Critical temperature turned out to be 568.9 ± 1.1 K.

For `CCC=C(C)C` [2-methyl-2-pentene], the Critical temperature is 509.3 ± 0.5 K.

Consider `CC(C)CC1CCCCC1` [2-methylpropylcyclohexane], for which the Critical temperature is on record as 642.1 ± 0.6 K.

Turning to `CC(C)N` [2-propanamine], the Critical temperature stood at 472.5 ± 0.4 K.

For `C=CC(C)(C)C` [3,3-dimethyl-1-butene], the Critical temperature stood at 477.4 ± 0.9 K.

For `CC/C=C/CCC` [3-heptene, (E)-], the Critical temperature stood at 538.6 ± 0.7 K.

In the case of `C=CCC(C)(C)C` [4,4-dimethyl-1-pentene], the Critical temperature is listed as 516 ± 4 K.

With `C=CCC(C)C` [4-methyl-1-pentene], the Critical temperature is reported as 493.1 ± 0.5 K.

On to `C=CCCC(C)C` [5-methyl-1-hexene], for which the Critical temperature is 528.7 ± 0.4 K.

As for `CC(C)C1CCCCC1` [(1-methylethyl)cyclohexane], the Critical temperature was 632.2 ± 0.4 K.

With `C/C=C/CCC` [(E)-2-hexene], the Critical temperature is reported as 509 ± 0.7 K.

As for `C/C=C/CCCCC` [(E)-2-octene], the Critical temperature worked out at 569.8 ± 0.4 K.

With `CC/C=C/CC` [(E)-3-hexene], the Critical temperature was found to be 507.4 ± 2 K.

In the case of `CCC/C=C/CCC` [(E)-4-octene], the Critical temperature is reported as 566.3 ± 1.1 K.

Regarding `C/C=C\CCC` [(Z)-2-hexene], the Critical temperature was 513.4 ± 0.9 K.

With `CC/C=C\CC` [(Z)-3-hexene], the Critical temperature was 510.2 ± 1.4 K.

Take `C/C=C\C(C)C` [(Z)-4-methyl-2-pentene]: the Critical temperature is on record as 496.3 ± 0.7 K.

`CCCCC1CCCCC1` [butylcyclohexane]: the Critical temperature was determined as 653.1 ± 0.4 K.

As to `C1CCCCC1` [cyclohexane], the Critical temperature was 553.6 ± 1.1 K.

As to `NC1CCCCC1` [cyclohexylamine], the Critical temperature came out at 626.8 ± 0.9 K.

Consider `C1CCCCCCC1` [cyclooctane], for which the Critical temperature is recorded as 647.5 ± 0.4 K.

Regarding `CCCCNCCCC` [dibutylamine], the Critical temperature amounted to 607.5 ± 1.1 K.

For `CCCNCCC` [dipropylamine], the Critical temperature worked out at 555.8 ± 1.1 K.

In the case of `CCC1CCCCC1` [ethylcyclohexane], the Critical temperature was found to be 606.9 ± 0.4 K.

As for `CCCN` [propan-1-amine], the Critical temperature came to 499.2 ± 0.4 K.
